Calls of active or inactive are those of the source. No cut-off for these calls is given here.
System: Lactobacillus acidophilus
Assay: Prebiotic activity in Lactobacillus acidophilus in simulated intestinal fluid after 1 to 3 hrs
Format: functional

| Structure (SMILES) | Activity |
| --- | --- |
| OC[C@H]1O[C@@H](O[C@@H]2[C@H](O)CO[C@](O)(CO)[C@H]2O)[C@H](O)[C@@H](O)[C@H]1O | Active |
| OC[C@H]1O[C@@H](O[C@H]2[C@H](O)[C@H](O)CO[C@]2(O)CO)[C@H](O)[C@@H](O)[C@H]1O | Active |
